Patent publication US6844345B2, “Piperazine derivatives” (priority 2001, dated 2005)
pEC50, pKi: −log10 of the molar value. Where two headings read alike, the source gives them in different places.

What was measured:
human 5-HT2B receptors = molecular target: T1, human 5-HT2B receptors (Homo sapiens, UniProt P41595); assay: Binding to 5-HT2B receptor, [3H]-5-HT radioligand, Method (b); conditions: human receptor in CHO cell line, read-out: Ki (2B)
T1 construct: expressed in transfected cells; host or cells: CHO cell line
Description: (§1) The binding of compounds of formula (I) to serotonin receptors was determined in vitro by standard methods. The preparations were investigated in accordance with the assays given hereinafter.
Method (b): For the binding to the 5-HT2B receptor the 5-HT2B receptors were radiolabeled with [^3H]-5-HT. The affinity of the compounds for human 5-HT2B receptors in a CHO cell line was determined according to the procedure of K. Schmuck, C. Ullmer, P. Engels and H. Lubbert, FEBS Lett., 1994, 342, 85-90.

5-HT2C receptor [1] = molecular target: T2, 5-HT2C receptor (Homo sapiens, UniProt P28335); assay: Functional activity, FLIPR calcium assay in CHO cells expressing human 5-HT2C; format: cell-based; design: expressed in transfected cells; host or cells: CHO cells; conditions: for h5-HT2c Relative Efficacy: maximum fluorescent signal relative to 10 μM 5-HT (defined as 100%)
T2 sequence (P28335 33-458): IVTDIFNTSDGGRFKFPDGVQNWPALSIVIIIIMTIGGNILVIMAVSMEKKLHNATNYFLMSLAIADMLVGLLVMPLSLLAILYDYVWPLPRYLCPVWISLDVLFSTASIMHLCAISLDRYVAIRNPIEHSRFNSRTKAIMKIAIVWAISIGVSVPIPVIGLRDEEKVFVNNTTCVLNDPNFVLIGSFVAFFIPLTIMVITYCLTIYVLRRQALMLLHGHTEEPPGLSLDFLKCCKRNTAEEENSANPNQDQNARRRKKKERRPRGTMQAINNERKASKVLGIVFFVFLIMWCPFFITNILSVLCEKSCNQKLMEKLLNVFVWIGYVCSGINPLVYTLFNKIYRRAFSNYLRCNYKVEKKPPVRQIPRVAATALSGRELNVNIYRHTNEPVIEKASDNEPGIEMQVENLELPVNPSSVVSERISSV
Description: (§2) The functional activity of compounds of formula (I) was assayed using a Fluorimetric Imaging Plate reader (FLIPR). CHO cells expressing the human 5-HT2C or human 5-HT2A receptors were counted and plated into standard 96 well microtitre plates on the day before testing to give a confluent monolayer. The cells were then dye loaded with the calcium sensitive dye, Fluo-3-AM. Unincorporated dye was removed using an automated cell washer to leave a total volume of 100 μL/well of assay buffer (Hanks balanced salt solution containing 20 mM Hepes and 2.5 mM probenecid). The drug (dissolved in 50 μL of the assay buffer) was added at a rate of 70 μL/sec to each well of the FLIPR 96 well plate during fluorescence measurements. The measurements were taken at 1 sec intervals and the maximum fluorescent signal was measured (approx. 10-15 secs after drug addition) and compared with the response produced by 10 μM 5-HT (defined as 100%) to which it was expressed as a percentage response (relative efficacy). Dose response curves were constructed using Graphpad Prism (Graph Software Inc.).

5-HT2A receptor [2] = molecular target: T3, 5-HT2A receptor (Homo sapiens, UniProt P28223); assay: Functional activity, FLIPR calcium assay in CHO cells expressing human 5-HT2A; format: cell-based; design: expressed in transfected cells; host or cells: CHO cells; conditions: for h5-HT2A Relative Efficacy: maximum fluorescent signal relative to 10 μM 5-HT (defined as 100%)
Description: as §2

5-HT2C receptor [3] = molecular target: T2, 5-HT2C receptor; assay: Binding to 5-HT2C receptor, [3H]-5-HT radioligand, Method (a); design: expressed in transfected cells; host or cells: CHO cell line; conditions: CHO cell line, read-out: Ki (2C)
Description: as §1
Method (a): For the binding to the 5-HT2C receptor the 5-HT2C receptors were radiolabeled with [^3H]-5-HT. The affinity of the compounds for 5-HT2C receptors in a CHO cell line was determined according to the procedure of D. Hoyer, G. Engel and H. O. Kalkman, European J. Pharmacol., 1985, 118, 13-23.

5-HT2A receptor [4] = molecular target: T3, 5-HT2A receptor; assay: Binding to 5-HT2A receptor, [125I]-DOI radioligand, Method (c); design: expressed in transfected cells; host or cells: CHO cell line; conditions: CHO cell line, read-out: Ki (2A)
Description: as §1
Method (c): For the binding to the 5-HT2A receptor the 5-HT2A receptors were radiolabeled with [^125I]-DOI. The affinity of the compounds for 5-HT2A receptors in a CHO cell line was determined according to the procedure of D. J. McKenna and S. J. Peroutka, J. Neurosci., 1989, 9, 3482-90.

[5] = FLIPR, CHO cells, Fluo-3-AM, read-out: h5-HT2c EC50
[6] = FLIPR, CHO cells, Fluo-3-AM, read-out: h5-HT2A EC50

T3 sequence (P28223 whole entry): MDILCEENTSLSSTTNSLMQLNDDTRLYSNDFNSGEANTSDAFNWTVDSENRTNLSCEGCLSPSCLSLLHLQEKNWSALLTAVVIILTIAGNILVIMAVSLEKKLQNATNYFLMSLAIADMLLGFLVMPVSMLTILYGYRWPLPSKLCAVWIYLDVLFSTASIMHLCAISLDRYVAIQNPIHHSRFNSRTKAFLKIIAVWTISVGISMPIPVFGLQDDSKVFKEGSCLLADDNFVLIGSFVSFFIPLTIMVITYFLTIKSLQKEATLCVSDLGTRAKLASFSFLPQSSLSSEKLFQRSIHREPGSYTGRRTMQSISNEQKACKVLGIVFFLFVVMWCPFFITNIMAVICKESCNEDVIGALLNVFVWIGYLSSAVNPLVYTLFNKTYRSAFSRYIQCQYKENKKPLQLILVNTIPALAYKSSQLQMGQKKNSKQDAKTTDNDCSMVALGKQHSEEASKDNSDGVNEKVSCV
T1 sequence (P41595 whole entry): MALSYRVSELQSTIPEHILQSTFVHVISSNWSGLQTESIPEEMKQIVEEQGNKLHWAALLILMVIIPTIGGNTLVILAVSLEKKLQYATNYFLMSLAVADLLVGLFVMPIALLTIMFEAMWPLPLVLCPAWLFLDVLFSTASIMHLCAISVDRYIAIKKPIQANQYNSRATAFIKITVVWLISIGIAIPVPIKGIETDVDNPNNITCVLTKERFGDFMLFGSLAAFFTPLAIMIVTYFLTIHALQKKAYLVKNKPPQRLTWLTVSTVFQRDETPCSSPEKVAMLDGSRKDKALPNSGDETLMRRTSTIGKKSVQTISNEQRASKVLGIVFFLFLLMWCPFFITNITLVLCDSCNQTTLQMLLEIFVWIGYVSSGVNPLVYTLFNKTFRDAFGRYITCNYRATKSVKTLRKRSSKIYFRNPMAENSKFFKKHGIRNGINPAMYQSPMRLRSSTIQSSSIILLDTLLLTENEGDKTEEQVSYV

For `Cc1cc2c(cc1Br)cc1n2[C@H](C)CNC1.Cl`, the melting point was 241 °C (dec.).
With `Cc1ccc2cc3n(c2c1)[C@H](C)CNC3.Cl` the melting point was 245 °C (dec.).
For `C[C@@H]1CNCc2cc3c(Cl)cccc3n21.Cl`, the melting point was 234 to 237 °C (dec.).
In the case of `C[C@@H]1CNCc2cc3cc(Br)c(F)cc3n21.Cl`, the melting point was 232 °C.
With `CCc1cccc2cc3n(c12)[C@H](C)CNC3` [Example 1, (R)-6-Ethyl-4-methyl-1,2,3,4-tetrahydro-pyrazino[1,2-a]indole] the pKi (human 5-HT2B receptors) was 7.07, the pEC50 (5-HT2C receptor [1]; [5]) was 7.66 and the “h5-HT2c Relative Efficacy” value (5-HT2C receptor [1]) was 83%. For the same compound, the pEC50 (5-HT2A receptor [2]; [6]) was 6.19, the “h5-HT2A Relative Efficacy” value (5-HT2A receptor [2]) was 23% and the pKi (5-HT2C receptor [3]) was 8.30. For the same compound, the pKi (5-HT2A receptor [4]) was 6.69.
Compound `C[C@@H]1CNCc2cc3ccc(C(F)(F)F)cc3n21` [Example 2, (R)-4-Methyl-7-trifluoromethyl-1,2,3,4-tetrahydro-pyrazino[1,2-a]indole] has a melting point of 123 to 125 °C.
In the case of `Cc1c2n(c3c(C)c(Cl)ccc13)[C@H](C)CNC2.O=C(O)C(=O)O` [Example 14, (R)-7-Chloro-4,6,10-trimethyl-1,2,3,4-tetrahydro-pyrazino[1,2-a]indole oxalate], the pEC50 (5-HT2C receptor [1]; [5]) was 9.40, the “h5-HT2c Relative Efficacy” value (5-HT2C receptor [1]) was 88% and the pEC50 (5-HT2A receptor [2]; [6]) was 6.27. For the same compound, the “h5-HT2A Relative Efficacy” value (5-HT2A receptor [2]) was 34%.
Work on `C[C@@H]1CNCc2cc3cccc(OC(F)(F)F)c3n21` [Example 17, (R)-4-Methyl-6-trifluoromethoxy-1,2,3,4-tetrahydro-pyrazino[1,2-a]indole] yielded a melting point of 58 to 60 °C.
For `C[C@@H]1CNCc2cc3ccc(Cl)cc3n21` [Example 20, (R)-7-Chloro-4-methyl-1,2,3,4-tetrahydro-pyrazino[1,2-a]indole], the pKi (human 5-HT2B receptors) was 7.36, the pEC50 (5-HT2C receptor [1]; [5]) was 8.15 and the “h5-HT2c Relative Efficacy” value (5-HT2C receptor [1]) was 91%. For the same compound, the pEC50 (5-HT2A receptor [2]; [6]) was 6.79, the “h5-HT2A Relative Efficacy” value (5-HT2A receptor [2]) was 49% and the pKi (5-HT2C receptor [3]) was 8.55. For the same compound, the pKi (5-HT2A receptor [4]) was 7.64.
In the case of `Cc1ccc(C)c2c1cc1n2[C@H](C)CNC1` [Example 21, (R)-4,6,9-Trimethyl-1,2,3,4-tetrahydro-pyrazino[1,2-a]indole], the pEC50 (5-HT2C receptor [1]) was 8.30, the “h5-HT2c Relative Efficacy” value (5-HT2C receptor [1]) was 80% and the pEC50 (5-HT2A receptor [2]) was 6.92. The “h5-HT2A Relative Efficacy” value (5-HT2A receptor [2]) was 76%.
